In US9765089B2, “ACC inhibitors and uses thereof” (Gilead Apollo, LLC, priority 2013, dated 2017):

Legend:
ACC2 [1] = biological target: ACC2 (Homo sapiens, UniProt O00763); assay: in vitro ACC2 inhibition assay (ADP-Glo); assay type: biochemical; conditions: 5 nM ACC2, 20 μM ATP, 20 μM acetyl-CoA, 60 min room temperature, luminescence
Experimental: In Vitro Acetyl-CoA Carboxylase (ACC) Inhibition Assay
An exemplary procedure for the in vitro ACC inhibition assay, which can be used to determine the inhibitory action of compounds of the invention toward either ACCT or ACC2, follows. The ADP-Glo™ Kinase Assay kit from Promega is used. The ADP-Glo™ Kinase Assay is a luminescent ADP detection assay to measure enzymatic activity by quantifying the amount of ADP produced during an enzyme reaction. The assay is performed in two steps; first, after the enzyme reaction, an equal volume of ADP-Glo™ Reagent is added to terminate the reaction and deplete the remaining ATP. Second, the Kinase Detection Reagent is added to simultaneously convert ADP to ATP and allow the newly synthesized ATP to be measured using a luciferase/luciferin reaction. Luminescence can be correlated to ADP concentrations by using an ATP-to-ADP conversion curve. The detailed procedure is as follows. 50 μL of the compound being tested (600 uM in DMSO) is added to a 384-well dilution plate. The compound is diluted 1:3 in succession in DMSO for each row for 11 wells. […] is added to 384-well white Optiplate assay plate. 0.5 μL diluted compound solution in each column from step 2 is added to the assay plate, each row containing 2 replicates. For the last 2 rows, add 0.5 μL negative control (DMSO) in one row and 0.5 μL positive control (compound I-97) in the other. The plates are incubated at room temperature for 15 minutes. 5 μL substrate working solution is added to each well to initiate reaction. Final ACC2 reaction concentrations consist of: 5 nM ACC2, 20 μM ATP, 20 μM acetyl-CoA, 12 mM NaHCO3, 0.01% Brij35, 2 mM DTT, 5% DMSO, test compound concentrations: 30 μM, 10 μM, 3.33 μM, 1.11 μM, 0.37 μM, 0.123 μM, 0.0411 μM, 0.0137 μM, 0.00457 μM, 0.00152 μM, and 0.00051 μM. Plates are incubated at room temperature for 60 minutes. 10 μL ADP glo reagent is added. Plates are incubated at room temperature for 40 minutes. 20 μL kinase detection reagent is added. Plates are incubated at room temperature for 40 minutes, then read on a Perkin Elmer EnVision 2104 plate reader for luminescence as Relative Light Units (RLU).
Data for each concentration, as well as the positive and negative controls are averaged, and the standard deviation calculated. Percent inhibition is calculated by the formula: 100×(average negative control−compound)/(average negative control−average positive control). The IC50 for each compound is calculated by fitting the data with a non-linear regression equation: Y=Bottom+(Top-Bottom)/(1+10^((Log IC50−X)*HillSlope)), where X is the log of compound concentration and Y is percent inhibition.
The compound numbers correspond to the compound numbers in Table 1. Compounds having an activity designated as “AAA” provided an IC50≦0.1 μM; compounds having an activity designated as “AA” provided an IC50≦1 μM; compounds having an activity designated as “A” provided an IC50≦5 μM; compounds having an activity designated as “B” provided an IC50 of 5-20 μM; compounds having an activity designated as “C” provided an IC50 of 20-50 μM; and compounds having an activity designated as “D” provided an IC50≧50 μM

ACC1 = ACC1 isolated from rat, mouse, monkey and human; cited from earlier work
ACC2 [2] = conditions: ACC2 isolated from rat, mouse, monkey and human; cited from earlier work

Chain of ACC2 (Homo sapiens, UniProt O00763) (O00763 whole entry, species assumed): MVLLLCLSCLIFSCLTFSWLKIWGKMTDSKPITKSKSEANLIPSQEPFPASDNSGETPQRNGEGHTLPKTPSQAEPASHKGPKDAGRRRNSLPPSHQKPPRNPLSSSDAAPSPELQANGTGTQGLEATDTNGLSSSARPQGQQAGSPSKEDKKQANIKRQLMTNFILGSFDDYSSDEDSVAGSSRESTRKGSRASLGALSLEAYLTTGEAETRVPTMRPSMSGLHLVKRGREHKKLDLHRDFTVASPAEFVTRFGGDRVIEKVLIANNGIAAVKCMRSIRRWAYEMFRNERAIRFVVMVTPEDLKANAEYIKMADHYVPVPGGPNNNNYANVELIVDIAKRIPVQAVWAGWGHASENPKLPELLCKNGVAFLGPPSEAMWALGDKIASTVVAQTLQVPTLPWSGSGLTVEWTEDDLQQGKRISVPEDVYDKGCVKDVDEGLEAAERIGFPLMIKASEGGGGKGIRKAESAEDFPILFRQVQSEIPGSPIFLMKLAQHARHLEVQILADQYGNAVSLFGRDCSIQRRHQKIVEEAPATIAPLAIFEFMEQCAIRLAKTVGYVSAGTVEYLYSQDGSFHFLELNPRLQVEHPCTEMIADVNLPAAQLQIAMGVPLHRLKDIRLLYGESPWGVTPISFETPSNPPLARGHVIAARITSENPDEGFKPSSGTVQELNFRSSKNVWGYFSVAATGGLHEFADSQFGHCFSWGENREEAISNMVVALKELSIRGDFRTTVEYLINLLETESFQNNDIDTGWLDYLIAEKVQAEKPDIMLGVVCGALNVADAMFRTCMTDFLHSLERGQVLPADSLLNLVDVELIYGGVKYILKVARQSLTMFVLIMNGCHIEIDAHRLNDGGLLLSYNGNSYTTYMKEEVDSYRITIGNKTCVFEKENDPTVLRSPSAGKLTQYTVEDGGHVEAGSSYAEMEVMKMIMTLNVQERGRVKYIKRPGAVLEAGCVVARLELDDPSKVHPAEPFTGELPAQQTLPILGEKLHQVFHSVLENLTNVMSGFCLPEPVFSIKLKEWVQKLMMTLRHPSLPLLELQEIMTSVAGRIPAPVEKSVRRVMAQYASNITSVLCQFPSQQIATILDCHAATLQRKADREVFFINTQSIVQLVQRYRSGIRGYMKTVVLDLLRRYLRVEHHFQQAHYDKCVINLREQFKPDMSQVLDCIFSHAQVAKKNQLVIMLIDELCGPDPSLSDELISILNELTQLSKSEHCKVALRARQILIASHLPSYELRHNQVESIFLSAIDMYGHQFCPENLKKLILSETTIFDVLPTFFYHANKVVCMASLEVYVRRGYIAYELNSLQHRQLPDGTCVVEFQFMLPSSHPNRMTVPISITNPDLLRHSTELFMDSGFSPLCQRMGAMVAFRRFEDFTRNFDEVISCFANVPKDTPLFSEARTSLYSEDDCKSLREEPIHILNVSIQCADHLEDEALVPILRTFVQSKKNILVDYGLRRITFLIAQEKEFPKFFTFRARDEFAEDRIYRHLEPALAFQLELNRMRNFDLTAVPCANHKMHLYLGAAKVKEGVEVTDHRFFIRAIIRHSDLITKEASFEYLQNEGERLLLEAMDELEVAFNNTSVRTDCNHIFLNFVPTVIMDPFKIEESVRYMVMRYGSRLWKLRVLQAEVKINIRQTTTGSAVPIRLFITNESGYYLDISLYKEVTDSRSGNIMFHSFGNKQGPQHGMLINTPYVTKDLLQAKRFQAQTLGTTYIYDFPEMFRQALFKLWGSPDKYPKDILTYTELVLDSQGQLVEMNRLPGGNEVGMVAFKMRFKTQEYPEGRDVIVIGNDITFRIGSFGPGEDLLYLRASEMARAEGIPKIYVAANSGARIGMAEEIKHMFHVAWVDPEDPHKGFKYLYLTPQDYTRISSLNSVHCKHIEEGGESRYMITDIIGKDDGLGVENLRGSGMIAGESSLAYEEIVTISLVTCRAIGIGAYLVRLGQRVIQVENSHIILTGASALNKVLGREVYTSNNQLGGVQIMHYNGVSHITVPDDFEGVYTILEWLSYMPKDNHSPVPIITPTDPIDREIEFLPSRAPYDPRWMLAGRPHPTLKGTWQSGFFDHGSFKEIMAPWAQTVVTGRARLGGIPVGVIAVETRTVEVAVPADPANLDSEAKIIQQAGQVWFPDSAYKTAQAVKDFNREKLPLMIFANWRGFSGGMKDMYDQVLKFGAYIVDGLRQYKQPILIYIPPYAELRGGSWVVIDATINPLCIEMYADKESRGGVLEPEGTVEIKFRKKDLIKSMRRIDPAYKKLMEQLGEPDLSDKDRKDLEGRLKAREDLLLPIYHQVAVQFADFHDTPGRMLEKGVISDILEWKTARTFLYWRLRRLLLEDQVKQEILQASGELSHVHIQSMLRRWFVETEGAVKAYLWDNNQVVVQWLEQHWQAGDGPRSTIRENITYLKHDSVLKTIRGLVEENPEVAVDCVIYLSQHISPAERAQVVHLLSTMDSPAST

| IC50 (ACC2 [1]) | Molecule | IC50 (ACC1) | IC50 (ACC2 [2]) |
| --- | --- | --- | --- |
| ≤ 0.1 µM | 2-(4-((R)-2-(5-fluoro-2-methoxyphenyl)-2-((tetrahydro-2H-pyran-4-yl)oxy)ethyl)-7-methyl-6-(oxazol-2-yl)-1,1-dioxido-3-oxo-3,4,4a,7a-tetra-hydro-2H-thieno[2,3-e][1,2,4]thiadiazin-2-yl)acetic acid [Compound I-41] | – | – |
| – | O=C(c1c2ccccc2cc2ccccc12)N1CCC(N2CCC[C@@H](C(=O)N3CCOCC3)C2)CC1 [CP-640186] | ~0.06 µM | ~0.06 µM |
| ≤ 5 µM | COc1ccc(F)cc1[C@H](CN1C(=O)N(C(C)(C)C(=O)O)S(=O)(=O)c2c1sc(-c1ncco1)c2C)OC1CCOCC1 [Compound I-42, (R)-2-(4-(2-(5-fluoro-2-methoxyphenyl)-2-((tetrahydro-2H-pyran-4-yl)oxy)ethyl)-7-methyl-6-(oxazol-2-yl)-1,1-dioxido-3-oxo-3,4-dihydro-2H-thieno[2,3-e][1,2,4]thiadiazin-2-yl)-2-methylpropanoic acid] | – | – |
| 5 to 20 µM | COc1ccccc1CCN1c2sc(-c3ncco3)c(C)c2C(=O)N(CC(=O)O)S1(=O)=O [Compound I-43, 2-(1-(2-methoxyphenethyl)-5-methyl-6-(oxazol-2-yl)-2,2-dioxido-4-oxo-1H-thieno[2,3-c][1,2,6]thiadiazin-3(4H)-yl)acetic acid] | – | – |
| 5 to 20 µM | COc1ccccc1CCN1c2sc(-c3ncco3)c(C)c2C(=O)N(CC(N)=O)S1(=O)=O [Compound I-44, 2-(1-(2-methoxyphenethyl)-5-methyl-6-(oxazol-2-yl)-2,2-dioxido-4-oxo-1H-thieno[2,3-c][1,2,6]thiadiazin-3(4H)-yl)acetamide] | – | – |
| 5 to 20 µM | COc1ccc(F)cc1[C@H](CN1C(=O)N(C(C)(C)C(=O)O)S(=O)(=O)c2c1sc(-c1ncco1)c2C)OC(C)C [Compound I-45, (R)-2-(4-(2-(5-fluoro-2-methoxyphenyl)-2-isopropoxyethyl)-7-methyl-6-(oxazol-2-yl)-1,1-dioxido-3-oxo-3,4-dihydro-2H-thieno[2,3-e][1,2,4]thiadiazin-2-yl)-2-methylpropanoic acid] | – | – |
| 5 to 20 µM | COc1ccccc1[C@H](CN1C(=O)N(C(C)(C)C(=O)O)S(=O)(=O)c2c1sc(-c1ncco1)c2C)OC1CCOCC1 [Compound I-46, (R)-2-(4-(2-(2-methoxyphenyl)-2-((tetrahydro-2H-pyran-4-yl)oxy)ethyl)-7-methyl-6-(oxazol-2-yl)-1,1-dioxido-3-oxo-3,4-dihydro-2H-thieno[2,3-e][1,2,4]thiadiazin-2-yl)-2-methylpropanoic acid] | – | – |
| 5 to 20 µM | COc1ccccc1[C@H](CN1C(=O)N(C(C)(C)C(=O)O)S(=O)(=O)c2c1sc(-c1ncco1)c2C)O[C@H]1CC[C@@H](O)CC1 [Compound I-47, 2-(4-((R)-2-(((1s,4S)-4-hydroxycyclohexyl)oxy)-2-(2-methoxyphenyl)ethyl)-7-methyl-6-(oxazol-2-yl)-1,1-dioxido-3-oxo-3,4-dihydro-2H-thieno[2,3-e][1,2,4]thiadiazin-2-yl)-2-methylpropanoic acid] | – | – |
| 5 to 20 µM | CCOC(=O)c1sc2c(c1C)S(=O)(=O)N(C(C)(C)C(=O)OCc1ccccc1)C(=O)N2C[C@H](OC(C)C)c1cc(F)ccc1OC [Compound I-48, (R)-ethyl 2-(1-(benzyloxy)-2-methyl-1-oxopropan-2-yl)-4-(2-(5-fluoro-2-methoxyphenyl)-2-isopropoxyethyl)-7-methyl-3-oxo-3,4-dihydro-2H-thieno[2,3-e][1,2,4]thiadiazine-6-carboxylate 1,1-dioxide] | – | – |
| ≥ 50 µM | COc1ccccc1CCc1nn(CC(=O)O)c(=O)c2c(C)c(-c3ncco3)sc12 [Compound I-49, 2-(7-(2-methoxyphenethyl)-3-methyl-2-(oxazol-2-yl)-4-oxothieno[2,3-d]pyridazin-5(4H)-yl)acetic acid] | – | – |
